The values below come from patent publication US20240391954A1, “MC4R AGONIST PEPTIDES” (The Regents of the University of Michigan, priority 2021, published 2024).

Holding throughout (format): cell-based
One test addresses T1, human MC4R (Homo sapiens, UniProt P32245).
T1 construct: host or cells: HEK-293 cells stably expressing the GScAMP22F split-luciferase cAMP sensor and hMC4R, G418 selection
Briefly: split-luciferase cAMP sensor assay, agonist mode (measurement window 1), hMC4R. The conditions noted are these: agonist mode; for Emax: % maximal activation, read-out: MC4R cAMP % max activation; for EC50: HEK-293 cells stably expressing hMC4R, read-out: MC4R cAMP EC50. In outline: (§1)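 Live stable cell lines carrying receptor plus GloSensor cAMP22f split-luciferase, loaded with 4% D-luciferin in serum-free medium (~1% serum estimated during assay). Luminescence recorded during in-line peptide addition; direct agonist effect read in window 1, with 20 μM forskolin as normalization reference. EC50 from four-parameter sigmoid fit.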

Another test concerns the target T2, human MC1R (Homo sapiens, UniProt Q01726).
T2 construct: expressed in transfected cells; host or cells: HEK-293 cells stably expressing hMC1R and the GScAMP22F cAMP sensor
As to the kind of experiment: split-luciferase cAMP sensor assay, agonist mode, hMC1R. The following applies: MC4R versus MC1R. The method, then: FIG. 4A-B. (A) Pharmacological properties of exemplary MC4R agonist peptides, including those with improved efficacy in the MC4R+/− mouse (CTX-1211, CTX-1227, and CTX-1228). Concentration-response agonist curves for peptides indicated at the human MC4R (red), human MC3R (blue), human MC5R (green), and human MC1R (black) were determined by a split-luciferase cAMP sensor dynamic assay in HEK-293 cells stably expressing the hMC1R, hMC3R, hMC4R, or hMC5R and the GScAMP22F cAMP sensor. Each data point represents the mean±SEM of two experiments with three replicates each per experiment. Data is normalized to the ECmax of α-MSH. (B) Same as above, for peptides representing reduced activity at the hMC1R. Inset tables indicate EC50 values for the ligand indicated for each receptor.
The assay for the determination of the cAMP response in live cells was described previously. (Yu et al., 2020, Science 368, 428-433; incorporated by reference in its entirety). Cells were seeded at a density of 20,000 cells per well using 384-well poly-D lysine-coated, clear bottom, and black-wall assay plates (Corning Inc. Corning, NJ). Cells were allowed to attach to the plates for 18 to 24 h after which growth media was removed and 20 μl of 4% D-luciferin (Promega) in CO2 independent, serum-free medium (Thermo Fisher Scientific) was added to each well. The luciferase substrate was allowed to permeate the cells for 120 min at 37° C. Intracellular cAMP levels were measured using an FDSS 7000EX Functional Drug Screening System (Hamamatsu Photonics, Hamamatsu, Japan) in the Center for Chemical Genomics at the Life Sciences Institute. This instrument allowed the in-line addition of test-peptides and receptor agonists while simultaneously acquiring the luminescence signal from live cells. Assay read steps were set as follows: baseline acquisition of 2 min, the addition of 10 μl of varying 3× concentrations of test-peptides or vehicle followed by 11 min measurement (measurement window 1), and 10 μl addition of 4× concentration of the endogenous melanocortin agonist α-MSH (Bachem, Bubendorf, Switzerland) followed by an additional 11 min response measurement (measurement window 2). The resulting final concentration of α-MSH was close to the respective receptor EC90 dose for each receptor. Intraplate concentration response curves for α-MSH and SHU-9119 (Phoenix Pharmaceuticals, Burlingame CA) were included as reference controls. A submaximal forskolin (20 μM) concentration was also included to serve as a normalization reference to account for cell number variations and differences in assay transducer efficiency between cell lines.
With this set up it was possible to evaluate the direct effect of the test-peptides on the MC3R and MC4R cell lines during measurement window 1, while the antagonist profile in the presence of EC90 α-MSH was determined on measurement window 2. For data analysis baseline luminescence (i.e. the maximum luminescence signal from the initial 0 to 2 min window) was subtracted from the maximum luminescence obtained during measurement window 1 (2 to 13 min) and measurement window 2 (13 to 24 min) to yield the test-peptide elicited responses. EC50 or IC50 potency values were determined by non-linear regression by fitting the data to a sigmoid four-parameter variable slope model using the GraphPad Prism version 8.4 software package (San Diego CA).

For the next test, the target named is T3, human MC3R (Homo sapiens, UniProt P41968).
T3 construct: expressed in transfected cells; host or cells: HEK-293 cells stably expressing the GScAMP22F split-luciferase cAMP sensor (parent reporter line from Promega); MC3R clone generated in-house, G418 selection
Briefly: split-luciferase cAMP sensor assay, agonist mode (measurement window 1), hMC3R. The following applies: for Emax: % maximal activation, read-out: MC3R cAMP % max activation; for Emax / EC50: agonist mode; for MC4R selectivity vs MC3R: MC4R versus MC3R; for EC50: HEK-293 cells stably expressing hMC3R, read-out: MC3R cAMP EC50. In outline:
as §1

Positions of bridges follow the written chain, without caps; N, C: chain ends. Non-standard residues stand in square brackets, D forms with d. Residues, ends and D or L forms follow the SMILES beside them. hCit = NC(=O)NCCCC[C@H](N)C(=O)O; 3Pal = N[C@@H](Cc1cccnc1)C(=O)O; Cit = NC(=O)NCCC[C@H](N)C(=O)O; Nle = CCCC[C@H](N)C(=O)O; Aib = CC(C)(N)C(=O)O Some results are limits rather than exact numbers.

T1 sequence (P32245 whole entry): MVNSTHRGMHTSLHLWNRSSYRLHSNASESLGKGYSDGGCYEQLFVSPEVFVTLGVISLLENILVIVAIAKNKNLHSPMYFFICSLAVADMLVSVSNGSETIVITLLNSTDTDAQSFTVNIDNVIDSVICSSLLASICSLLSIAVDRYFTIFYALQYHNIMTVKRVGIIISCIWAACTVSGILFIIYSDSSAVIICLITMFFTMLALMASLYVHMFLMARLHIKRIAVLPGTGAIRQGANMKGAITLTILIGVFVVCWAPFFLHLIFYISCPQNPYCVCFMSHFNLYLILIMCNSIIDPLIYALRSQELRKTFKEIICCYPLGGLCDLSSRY
T3 sequence (P41968 whole entry): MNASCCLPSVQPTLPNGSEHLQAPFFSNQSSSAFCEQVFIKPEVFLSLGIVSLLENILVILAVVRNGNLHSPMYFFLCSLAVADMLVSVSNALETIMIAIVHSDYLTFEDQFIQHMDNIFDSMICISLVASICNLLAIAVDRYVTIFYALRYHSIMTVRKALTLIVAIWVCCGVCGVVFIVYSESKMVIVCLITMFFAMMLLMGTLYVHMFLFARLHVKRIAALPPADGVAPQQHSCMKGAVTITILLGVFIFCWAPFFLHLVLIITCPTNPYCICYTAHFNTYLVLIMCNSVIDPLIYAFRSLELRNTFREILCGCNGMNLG
T2 sequence (Q01726 whole entry): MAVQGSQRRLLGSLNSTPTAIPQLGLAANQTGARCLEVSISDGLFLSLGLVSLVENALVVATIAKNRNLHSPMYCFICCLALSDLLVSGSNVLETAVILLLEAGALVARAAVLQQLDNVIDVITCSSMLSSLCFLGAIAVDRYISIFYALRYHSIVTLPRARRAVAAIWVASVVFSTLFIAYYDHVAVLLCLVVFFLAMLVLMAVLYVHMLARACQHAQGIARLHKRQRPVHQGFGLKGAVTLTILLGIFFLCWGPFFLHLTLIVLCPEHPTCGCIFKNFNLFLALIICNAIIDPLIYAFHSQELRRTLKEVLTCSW

Take `CCCC[C@H](NC(=O)[C@H](CCCNC(=N)N)NC(C)=O)C(=O)N[C@H]1CSSC[C@@H](C(N)=O)NC(=O)[C@H](Cc2c[nH]c3ccccc23)NC(=O)[C@H](CCCNC(=N)N)NC(=O)[C@H](Cc2ccccc2)NC(=O)[C@H](CCCNC(N)=O)NC1=O` [CTX-1609, Arg-Nle-cyclo(Cys-Cit-Phe-Arg-Trp-Cys)] (Ac-R[Nle]C[Cit]FRWC-NH2; disulfide 3-8 (inferred)): the Emax on human MC4R was 96%; on human MC3R, 65%. At human MC1R, the “MC4R selectivity vs MC1R” value is listed as 4.15. The “MC4R selectivity vs MC3R” value at human MC3R came to 4.72.

The term EC50 denotes the concentration that produces a half-maximal response. As to `CC(=O)N[C@H]1CSSC[C@@H](C(N)=O)NC(=O)[C@H](Cc2c[nH]c3ccccc23)NC(=O)[C@H](CCCNC(=N)N)NC(=O)[C@@H](Cc2ccccc2)NC(=O)[C@H](CCCNC(N)=O)NC(=O)[C@@H](C)NC1=O` [CTX-1628, cyclo(Cys-D-Ala-Cit-D-Phe-Arg-Trp-Cys)] (Ac-C[dA][Cit][dF]RWC-NH2; disulfide 1-7 (inferred)), at human MC4R, the Emax was 99% and the EC50 worked out at 14 nM. Further, on human MC1R, the “MC4R selectivity vs MC1R” value came out at 191. At human MC3R, the Emax turned out to be 45% and the “MC4R selectivity vs MC3R” value was found to be 6.37.

As for `COc1ccc(C[C@H]2NC(=O)[C@H](CCCNC(=N)N)NC(=O)C(C)(C)NC(=O)[C@@H](NC(=O)[C@H](CCCNC(=N)N)NC(C)=O)CSSC[C@@H](C(N)=O)NC(=O)[C@@H](Cc3c[nH]c4ccccc34)NC(=O)[C@H](CCCNC(=N)N)NC2=O)cc1` [CTX-1297, Arg-cyclo(Cys-Aib-Arg-D-Tyr(4-OMe)-Arg-D-Trp-Cys)] (Ac-RC[Aib]R[dY](Me)R[dW]C-NH2; disulfide 2-8 (inferred)), at human MC4R, the Emax was 97% and the EC50 came out at 3.3 nM. In addition, the “MC4R selectivity vs MC1R” value at human MC1R was found to be 0.52. Moreover, on human MC3R, the EC50 was over 10000 nM and the “MC4R selectivity vs MC3R” value was >3,000.

Consider `COc1ccc(C[C@H]2NC(=O)[C@H](CCCNC(=N)N)NC(=O)C(C)(C)NC(=O)[C@@H](NC(=O)[C@H](CCCNC(=N)N)NC(C)=O)CSSC[C@@H](C(N)=O)NC(=O)[C@H](Cc3ccccc3)NC(=O)[C@H](CCCNC(=N)N)NC2=O)cc1` [CTX-1298, Arg-cyclo(Cys-Aib-Arg-D-Tyr(4-OMe)-Arg-Phe-Cys)] (Ac-RC[Aib]R[dY](Me)RFC-NH2; disulfide 2-8 (inferred)), for which, at human MC4R, the Emax stood at 93% and the concentration giving a half-maximal response (EC50) was 3.3 nM. Moreover, the “MC4R selectivity vs MC1R” value on human MC1R was found to be 0.12. In addition, on human MC3R, the EC50 is over 10000 nM and the “MC4R selectivity vs MC3R” value turned out to be 0.93.

Take `CC(=O)N[C@@H](CCCNC(=N)N)C(=O)N[C@H]1CSSC[C@@H](C(N)=O)NC(=O)[C@H](Cc2c[nH]c3ccccc23)NC(=O)[C@H](CCCNC(=N)N)NC(=O)[C@@H](Cc2ccccc2)NC(=O)[C@H](CCCNC(=N)N)NC(=O)[C@H](C)NC1=O` [CTX-1267, Arg-cyclo(Cys-Ala-Arg-D-Phe-Arg-Trp-Cys)] (Ac-RCAR[dF]RWC-NH2; disulfide 2-8): at human MC4R, the Emax turned out to be 96% and the EC50 came to 3 nM. Besides, on human MC1R, the “MC4R selectivity vs MC1R” value is given as 0.5. For the same compound, at human MC3R, the Emax was determined as 40%, the EC50 was found to be 12 nM and the “MC4R selectivity vs MC3R” value is listed as 4.07.

`CC(=O)N[C@@H](CCCNC(=N)N)C(=O)N[C@H]1CSSC[C@@H](C(N)=O)NC(=O)[C@H](Cc2ccccc2)NC(=O)[C@H](CCCNC(=N)N)NC(=O)[C@@H](Cc2ccccc2)NC(=O)[C@H](Cc2cccnc2)NC(=O)C(C)(C)NC1=O` [CTX-1605, Arg-cyclo(Cys-Aib-Pal(3′)-D-Phe-Arg-Phe-Cys)] (Ac-RC[Aib][3Pal][dF]RFC-NH2; disulfide 2-8 (inferred)): the Emax at human MC4R was found to be 85%. Moreover, on human MC1R, the “MC4R selectivity vs MC1R” value amounted to 0.14. Further, on human MC3R, the EC50 is over 10000 nM and the “MC4R selectivity vs MC3R” value is on record as over 300.

`CC(=O)N[C@H]1CSSC[C@@H](C(N)=O)NC(=O)[C@H](Cc2ccccc2)NC(=O)[C@H](CCCNC(=N)N)NC(=O)[C@@H](Cc2ccccc2)NC(=O)[C@H](CCCNC(N)=O)NC(=O)CNC1=O` [CTX-1639, cyclo(Cys-Gly-Cit-D-Phe-Arg-Phe-Cys)] (Ac-CG[Cit][dF]RFC-NH2; disulfide 1-7 (inferred)): the Emax is 88% at human MC4R and 44% at human MC3R. In addition, the “MC4R selectivity vs MC1R” value on human MC1R was determined as 8.32. In addition, the “MC4R selectivity vs MC3R” value on human MC3R came to 2.82.

Turning to `CCCC[C@H](NC(=O)[C@H](CCCNC(=N)N)NC(C)=O)C(=O)N[C@H]1CSSC[C@@H](C(N)=O)NC(=O)[C@H](Cc2ccccc2)NC(=O)[C@H](CCCNC(=N)N)NC(=O)[C@@H](Cc2ccccc2)NC(=O)[C@H](CCCNC(=N)N)NC1=O` [CTX-1622, Arg-Nle-cyclo(Cys-Arg-D-Phe-Arg-Phe-Cys)] (Ac-R[Nle]CR[dF]RFC-NH2; disulfide 3-8 (inferred)), on human MC4R, the Emax is 101%. In addition, the “MC4R selectivity vs MC1R” value on human MC1R was 0.39. At human MC3R, the Emax worked out at 100%, the EC50 worked out at 13 nM and the “MC4R selectivity vs MC3R” value is 0.32.

For the compound `CC(=O)N[C@@H](CCCNC(=N)N)C(=O)N[C@H]1CSSC[C@@H](C(N)=O)NC(=O)[C@H](Cc2ccccc2)NC(=O)[C@H](CCCNC(=N)N)NC(=O)[C@@H](Cc2ccccc2)NC(=O)[C@H](CCCCNC(N)=O)NC(=O)C(C)(C)NC1=O` [CTX-1603, Arg-cyclo(Cys-Aib-homo-Cit-D-Phe-Arg-Phe-Cys)] (Ac-RC[Aib][hCit][dF]RFC-NH2; disulfide 2-8 (inferred)), the Emax on human MC4R turned out to be 91%. For the same compound, the “MC4R selectivity vs MC1R” value at human MC1R stood at 2.46. At human MC3R, the EC50 is over 10000 nM and the “MC4R selectivity vs MC3R” value is over 18.

As to `CC(=O)N[C@H]1CSSC[C@@H](C(N)=O)NC(=O)[C@H](Cc2c[nH]c3ccccc23)NC(=O)[C@H](CCCNC(=N)N)NC(=O)[C@@H](Cc2ccccc2)NC(=O)[C@H](Cc2c[nH]cn2)NC(=O)C(C)(C)NC1=O` [CTX-1631, cyclo(Cys-Aib-His-D-Phe-Arg-Trp-Cys)], the Emax at human MC4R was determined as 107%. For the same compound, the “MC4R selectivity vs MC1R” value on human MC1R was found to be 4.09. Also, at human MC3R, the Emax was 100% and the “MC4R selectivity vs MC3R” value is 6.91.

On to `N=C(N)NCCC[C@@H]1NC(=O)[C@@H](Cc2ccccc2)NC(=O)[C@H](CCCNC(N)=O)NC(=O)CNC(=O)CSC[C@@H](C(N)=O)NC(=O)[C@H](Cc2ccccc2)NC1=O` [CTX-1655, Thioether-cyclo(Gly-Cit-D-Phe-Arg-Phe-Cys)] ({CH2CO}-G[Cit][dF]RFC-NH2; thioether N-6), for which the EC50 on human MC4R and on human MC3R was over 10000 nM each time. In addition, the “MC4R selectivity vs MC1R” value on human MC1R is on record as “Not active”. Also, the “MC4R selectivity vs MC3R” value at human MC3R is “Not active”.

Take `CC(=O)N[C@@H](CCCNC(=N)N)C(=O)N[C@H]1CSSC[C@@H](C(N)=O)NC(=O)[C@H](Cc2c[nH]c3ccccc23)NC(=O)[C@H](CCCNC(=N)N)NC(=O)[C@@H](Cc2ccccc2)NC(=O)[C@H](CCCNC(N)=O)NC(=O)CNC1=O` [CTX-1294, Arg-cyclo(Cys-Gly-Cit-D-Phe-Arg-Trp-Cys)] (Ac-RCG[Cit][dF]RWC-NH2; disulfide 2-8 (inferred)): on human MC4R, the Emax came to 102%. At human MC1R, the “MC4R selectivity vs MC1R” value was determined as 111. For the same compound, at human MC3R, the Emax is 33% and the “MC4R selectivity vs MC3R” value was found to be 11.
